In the kinase profiling compilation of Christmann-Franck et al. (2016):

Experiments:
Settings in all cases: compound 10.0 µM
[1] = molecular target: MKNK1 (human) (UniProt Q9BUB5)
[2] = molecular target: PBK (human) (UniProt Q96KB5)
[3] = molecular target: CSNK1E (human) (UniProt P49674)
[4] = molecular target: MAP3K9 (human) (UniProt P80192)
[5] = molecular target: DDR2 (human) (UniProt Q16832)
[6] = molecular target: MAPK3 (human) (UniProt P27361)
[7] = molecular target: DYRK3 (human) (UniProt O43781)
[8] = molecular target: ITK (human) (UniProt Q08881)
[9] = molecular target: PLK3 (human) (UniProt Q9H4B4)
[10] = molecular target: CSNK1G1 (human) (UniProt Q9HCP0)
[11] = molecular target: MARK4 (human) (UniProt Q96L34)
[12] = molecular target: ACVRL1 (human) (UniProt P37023)
[13] = molecular target: FGFR1 (human) (UniProt P11362)
Chain of FGFR1 (human) (P11362 whole entry, looked up): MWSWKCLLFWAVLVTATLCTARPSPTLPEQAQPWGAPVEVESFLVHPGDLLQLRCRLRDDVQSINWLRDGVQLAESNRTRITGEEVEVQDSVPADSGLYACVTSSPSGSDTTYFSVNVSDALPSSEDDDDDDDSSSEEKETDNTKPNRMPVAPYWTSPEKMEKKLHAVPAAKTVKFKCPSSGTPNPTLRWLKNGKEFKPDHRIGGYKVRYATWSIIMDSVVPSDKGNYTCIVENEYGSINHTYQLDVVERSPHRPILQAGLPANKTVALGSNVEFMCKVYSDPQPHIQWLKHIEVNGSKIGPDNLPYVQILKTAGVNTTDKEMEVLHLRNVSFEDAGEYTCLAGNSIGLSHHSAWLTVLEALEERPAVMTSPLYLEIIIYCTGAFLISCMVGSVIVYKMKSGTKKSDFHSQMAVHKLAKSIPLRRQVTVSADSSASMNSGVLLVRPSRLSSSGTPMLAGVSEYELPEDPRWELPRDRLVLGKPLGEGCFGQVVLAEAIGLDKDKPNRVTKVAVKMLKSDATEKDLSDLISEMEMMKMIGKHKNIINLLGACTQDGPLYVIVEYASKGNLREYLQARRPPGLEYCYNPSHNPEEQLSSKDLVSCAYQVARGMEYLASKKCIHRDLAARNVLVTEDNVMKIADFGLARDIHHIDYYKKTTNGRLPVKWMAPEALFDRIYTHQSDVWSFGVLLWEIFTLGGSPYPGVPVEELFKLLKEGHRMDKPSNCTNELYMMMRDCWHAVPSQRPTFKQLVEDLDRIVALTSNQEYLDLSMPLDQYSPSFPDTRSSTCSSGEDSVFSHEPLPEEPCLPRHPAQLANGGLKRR

[14] = molecular target: CAMK1D (human) (UniProt Q8IU85)
Chain of CAMK1D (human) (Q8IU85 whole entry, looked up): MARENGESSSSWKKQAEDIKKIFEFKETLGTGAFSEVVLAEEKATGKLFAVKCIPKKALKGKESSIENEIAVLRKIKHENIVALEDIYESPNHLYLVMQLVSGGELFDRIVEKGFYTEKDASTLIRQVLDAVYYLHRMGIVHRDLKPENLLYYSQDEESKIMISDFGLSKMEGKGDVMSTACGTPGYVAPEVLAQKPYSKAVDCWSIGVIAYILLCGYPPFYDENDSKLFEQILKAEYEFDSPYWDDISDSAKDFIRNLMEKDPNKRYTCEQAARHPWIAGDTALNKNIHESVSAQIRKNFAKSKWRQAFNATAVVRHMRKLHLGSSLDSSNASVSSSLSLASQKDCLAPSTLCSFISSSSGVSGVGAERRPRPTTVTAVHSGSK

[15] = molecular target: MAPKAPK2 (human) (UniProt P49137)
[16] = molecular target: SGK3 (human) (UniProt Q96BR1)
[17] = molecular target: STK3 (human) (UniProt Q13188)
[18] = molecular target: ERBB2 (human) (UniProt P04626)
[19] = molecular target: PAK7 (human) (UniProt Q9P286)
[20] = molecular target: EPHA3 (human) (UniProt P29320)
[21] = molecular target: EGFR (human) (UniProt P00533)
[22] = molecular target: BLK (human) (UniProt P51451)
[23] = molecular target: RPS6KA4 KD1 KD2 (human) (UniProt O75676)
[24] = molecular target: JAK3 JH1 JH2 (human) (UniProt P52333)
[25] = molecular target: VRK1 (human) (UniProt Q99986)
[26] = molecular target: FGR (human) (UniProt P09769)
[27] = molecular target: CSNK2A1 (human) (UniProt P68400)
[28] = molecular target: NEK3 (human) (UniProt P51956)
[29] = molecular target: CAMK4 (human) (UniProt Q16566)
[30] = molecular target: DYRK1B (human) (UniProt Q9Y463)
[31] = molecular target: MST4 (human) (UniProt Q9P289)
[32] = molecular target: PRKD3 (human) (UniProt O94806)
Chain of PRKD3 (human) (O94806 whole entry, looked up): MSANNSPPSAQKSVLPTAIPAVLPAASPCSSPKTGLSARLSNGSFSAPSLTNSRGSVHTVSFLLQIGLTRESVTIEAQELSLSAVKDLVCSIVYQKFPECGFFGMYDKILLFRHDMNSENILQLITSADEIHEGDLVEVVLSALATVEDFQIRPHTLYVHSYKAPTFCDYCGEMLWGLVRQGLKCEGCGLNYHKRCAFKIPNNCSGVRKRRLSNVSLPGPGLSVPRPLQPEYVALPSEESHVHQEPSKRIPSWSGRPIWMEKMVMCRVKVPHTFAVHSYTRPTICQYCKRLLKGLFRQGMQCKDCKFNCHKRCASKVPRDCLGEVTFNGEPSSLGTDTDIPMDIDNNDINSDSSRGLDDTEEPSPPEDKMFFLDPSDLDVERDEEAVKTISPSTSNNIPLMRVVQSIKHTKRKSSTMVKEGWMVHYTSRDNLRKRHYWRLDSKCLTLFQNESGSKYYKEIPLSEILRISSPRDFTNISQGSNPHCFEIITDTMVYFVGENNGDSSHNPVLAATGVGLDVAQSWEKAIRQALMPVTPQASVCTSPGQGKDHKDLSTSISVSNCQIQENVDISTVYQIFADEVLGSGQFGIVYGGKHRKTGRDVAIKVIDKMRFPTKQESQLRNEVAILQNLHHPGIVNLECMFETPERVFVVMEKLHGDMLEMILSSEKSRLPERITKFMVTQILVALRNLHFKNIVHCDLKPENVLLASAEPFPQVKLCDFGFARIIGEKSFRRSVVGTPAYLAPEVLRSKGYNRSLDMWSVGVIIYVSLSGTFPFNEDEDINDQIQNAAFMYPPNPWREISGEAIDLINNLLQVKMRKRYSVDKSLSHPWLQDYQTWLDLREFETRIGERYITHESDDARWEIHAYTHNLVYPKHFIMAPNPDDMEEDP

[33] = molecular target: PAK6 (human) (UniProt Q9NQU5)
[34] = molecular target: STK39 (human) (UniProt Q9UEW8)
[35] = molecular target: CDK3 CCNE1 (human) (UniProt P24864+Q00526)
Chain of CDK3 CCNE1 (human) (P24864 whole entry, looked up): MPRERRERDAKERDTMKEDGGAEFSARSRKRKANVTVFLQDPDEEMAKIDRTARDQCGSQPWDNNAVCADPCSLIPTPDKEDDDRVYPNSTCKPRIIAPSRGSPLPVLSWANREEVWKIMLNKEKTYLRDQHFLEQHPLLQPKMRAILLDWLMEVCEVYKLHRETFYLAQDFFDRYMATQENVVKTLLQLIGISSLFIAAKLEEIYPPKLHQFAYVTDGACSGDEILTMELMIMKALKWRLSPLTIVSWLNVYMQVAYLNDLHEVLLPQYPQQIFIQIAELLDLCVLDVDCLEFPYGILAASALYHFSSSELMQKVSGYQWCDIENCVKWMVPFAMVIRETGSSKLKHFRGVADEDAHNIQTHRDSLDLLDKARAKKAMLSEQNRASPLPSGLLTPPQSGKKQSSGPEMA
Chain of CDK3 CCNE1 (human) (Q00526 whole entry, looked up): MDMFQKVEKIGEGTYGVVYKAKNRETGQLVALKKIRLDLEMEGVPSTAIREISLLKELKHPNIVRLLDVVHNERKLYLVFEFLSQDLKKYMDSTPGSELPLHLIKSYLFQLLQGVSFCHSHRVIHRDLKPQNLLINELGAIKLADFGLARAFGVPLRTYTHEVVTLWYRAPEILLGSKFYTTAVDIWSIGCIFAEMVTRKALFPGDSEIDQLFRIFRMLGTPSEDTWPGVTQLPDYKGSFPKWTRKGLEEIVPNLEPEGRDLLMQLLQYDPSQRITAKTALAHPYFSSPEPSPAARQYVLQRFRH

[36] = molecular target: PDPK1 (human) (UniProt O15530)
[37] = molecular target: MKNK2 (human) (UniProt Q9HBH9)
Chain of MKNK2 (human) (Q9HBH9 whole entry, looked up): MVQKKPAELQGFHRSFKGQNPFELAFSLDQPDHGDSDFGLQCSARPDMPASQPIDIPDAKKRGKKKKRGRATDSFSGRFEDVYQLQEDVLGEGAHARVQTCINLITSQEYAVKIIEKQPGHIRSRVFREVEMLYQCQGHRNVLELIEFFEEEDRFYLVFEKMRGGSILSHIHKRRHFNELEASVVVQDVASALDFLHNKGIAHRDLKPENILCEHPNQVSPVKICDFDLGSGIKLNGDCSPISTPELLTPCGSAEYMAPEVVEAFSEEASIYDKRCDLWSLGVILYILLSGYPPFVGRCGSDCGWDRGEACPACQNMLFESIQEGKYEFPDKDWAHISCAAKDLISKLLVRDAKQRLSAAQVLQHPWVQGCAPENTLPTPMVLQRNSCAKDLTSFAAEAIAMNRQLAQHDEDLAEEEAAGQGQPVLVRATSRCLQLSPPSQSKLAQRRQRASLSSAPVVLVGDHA

[38] = molecular target: ROS1 (human) (UniProt P08922)
[39] = molecular target: KIT (human) (UniProt P10721)
Chain of KIT (human) (P10721 whole entry, looked up): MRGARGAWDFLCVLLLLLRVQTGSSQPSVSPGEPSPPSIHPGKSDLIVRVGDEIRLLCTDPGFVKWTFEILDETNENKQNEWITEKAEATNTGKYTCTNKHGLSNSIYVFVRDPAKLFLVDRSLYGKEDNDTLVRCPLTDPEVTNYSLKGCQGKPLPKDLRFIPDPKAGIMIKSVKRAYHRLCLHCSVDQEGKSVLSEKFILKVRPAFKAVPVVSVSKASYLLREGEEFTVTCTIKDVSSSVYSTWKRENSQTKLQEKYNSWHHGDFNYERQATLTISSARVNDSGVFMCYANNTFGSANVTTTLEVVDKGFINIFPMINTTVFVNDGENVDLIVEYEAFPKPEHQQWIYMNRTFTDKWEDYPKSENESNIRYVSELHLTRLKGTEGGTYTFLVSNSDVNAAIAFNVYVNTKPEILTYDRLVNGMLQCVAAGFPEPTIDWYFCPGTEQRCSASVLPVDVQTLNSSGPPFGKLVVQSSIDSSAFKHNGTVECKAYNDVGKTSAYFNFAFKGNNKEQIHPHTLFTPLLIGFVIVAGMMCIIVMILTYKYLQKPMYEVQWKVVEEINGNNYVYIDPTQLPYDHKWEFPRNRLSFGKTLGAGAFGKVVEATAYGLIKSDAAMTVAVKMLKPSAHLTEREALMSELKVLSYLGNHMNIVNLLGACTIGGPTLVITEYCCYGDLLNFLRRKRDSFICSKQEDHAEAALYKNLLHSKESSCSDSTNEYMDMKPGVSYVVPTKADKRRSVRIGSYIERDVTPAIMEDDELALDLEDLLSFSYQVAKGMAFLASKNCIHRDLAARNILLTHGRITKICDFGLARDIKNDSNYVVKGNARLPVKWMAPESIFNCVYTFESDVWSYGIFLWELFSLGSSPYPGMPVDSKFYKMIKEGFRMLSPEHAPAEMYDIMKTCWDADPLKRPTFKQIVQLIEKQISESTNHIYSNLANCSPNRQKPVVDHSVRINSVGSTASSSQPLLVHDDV

[40] = molecular target: RPS6KA6 KD1 KD2 (human) (UniProt Q9UK32)
[41] = molecular target: CHEK2 (human) (UniProt O96017)
Chain of CHEK2 (human) (O96017 whole entry, looked up): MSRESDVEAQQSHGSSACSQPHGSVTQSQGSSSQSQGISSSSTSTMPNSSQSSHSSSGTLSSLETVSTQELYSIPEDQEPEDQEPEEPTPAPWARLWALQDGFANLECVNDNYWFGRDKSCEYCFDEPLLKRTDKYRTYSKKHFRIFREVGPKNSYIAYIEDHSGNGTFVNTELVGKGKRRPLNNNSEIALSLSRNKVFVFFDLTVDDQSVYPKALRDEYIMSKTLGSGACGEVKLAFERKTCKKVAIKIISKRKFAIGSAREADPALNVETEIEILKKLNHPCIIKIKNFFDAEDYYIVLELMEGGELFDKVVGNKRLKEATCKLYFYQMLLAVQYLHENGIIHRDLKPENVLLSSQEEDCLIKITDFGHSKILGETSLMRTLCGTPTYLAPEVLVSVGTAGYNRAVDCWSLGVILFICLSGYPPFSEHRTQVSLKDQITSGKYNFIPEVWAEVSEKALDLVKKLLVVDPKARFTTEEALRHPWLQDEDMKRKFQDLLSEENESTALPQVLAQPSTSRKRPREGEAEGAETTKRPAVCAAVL

[42] = molecular target: CDK5 CDK5R1 p25 (human) (UniProt Q15078+Q00535)
[43] = molecular target: GRK4 (human) (UniProt P32298)
[44] = tested on: LYN (human), P07948 [23-43 del]

## CC[C@H](C)n1cc(C)c2c(C(=O)NCc3c(C)cc(C)[nH]c3=O)cc(-c3ccc(N4CCNCC4)nc3)cc21
[1]
  residual activity: 97%
[2]
  residual activity: 94%
[3]
  residual activity: 94.5%
[4]
  residual activity: 92.5%
[5]
  residual activity: 102%
[6]
  residual activity: 99%
[7]
  residual activity: 96.5%
[8]
  residual activity: 89.5%
[9]
  residual activity: 106%
[10]
  residual activity: 110%
[11]
  residual activity: 83%
[12]
  residual activity: 98%
[13]
  residual activity: 84.5%
[14]
  residual activity: 82%
[15]
  residual activity: 99%
[16]
  residual activity: 105%
[17]
  residual activity: 90%
[18]
  residual activity: 100%
[19]
  residual activity: 102%
[20]
  residual activity: 98%
[21]
  residual activity: 96.5%
[22]
  residual activity: 81.5%
[23]
  residual activity: 90.5%
[24]
  residual activity: 95.5%
[25]
  residual activity: 101%
[26]
  residual activity: 91%
[27]
  residual activity: 110%
[28]
  residual activity: 107%
[29]
  residual activity: 87.5%
[30]
  residual activity: 90.5%
[31]
  residual activity: 98%
[32]
  residual activity: 102%
[33]
  residual activity: 102%
[34]
  residual activity: 95.5%
[35]
  residual activity: 105%
[36]
  residual activity: 100%
[37]
  residual activity: 98%
[38]
  residual activity: 110%
[39]
  residual activity: 99%
[40]
  residual activity: 92%
[41]
  residual activity: 71%
[42]
  residual activity: 97.5%
[43]
  residual activity: 98%
[44]
  residual activity: 92%
